Experimental data taken from US11028090B2 (Dong Wha Pharm. Co., Ltd., priority 2017, dated 2021).
Like-named read-outs stand apart in the source and are kept apart here.

Legend:
[1] = system: acute myelogenous leukemia cells (MV-4-11 cells); experiment: Cytotoxicity to acute myelogenous leukemia cells (MV-4-11 cells), CCK-8; settings: Homo sapiens, MV4-11, 72 h
[2] = target: BRD4 (BD1+BD2) bromodomain (Homo sapiens (Human), UniProt O60885); experiment: BRD4 binding inhibition (AlphaScreen, GST-BRD4 vs tetraacetylated histone H4 peptide)
Method in brief: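 GST-BRD4 (BD1+BD2) and biotinylated tetraacetyl-histone H4 peptide, each at 100 nM in HEPES pH 7.4 buffer with BSA and DTT, were combined with compound. Glutathione acceptor and streptavidin donor beads were added, then incubated 30 min at room temperature in the dark. Read-out was AlphaScreen signal.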

[3] = read-out: IC50, cytotoxicity against acute myelogenous leukemia cells
[4] = read-out: MV-4-11 Cytotoxicity IC50
[5] = GST-BRD4 (BD1+BD2) / biotinylated acetyl-histone H4 (Lys5,8,12,16) peptide, read-out: IC50, BRD4 binding inhibition
[6] = GST-BRD4 (BD1+BD2) vs biotinylated acetyl-histone H4 peptide, AlphaScreen, read-out: BRD4 IC50

Compound	IC50 [2, 5] [nM]	IC50 [2, 6] [nM]	IC50 [1, 3] [nM]	IC50 [1, 4] [nM]	IC50 ([2]; IC50, BRD4 binding inhibition, GST-BRD4 (BD1+BD2) / biotinylated acetyl-histone H4 (Lys5,8,12,16) peptide) [nM]
Cc1nnc2c(NCCCCNC(=O)CC(C)C)nc3cc(-c4nc5ccccc5n4C)ccc3n12 [Example 222, 3-methyl-N-{4-[1-methyl-7-(1-methyl-1H-benzoimidazole-2-yl)-[1,2,4]triazolo[4,3-a]quinoxaline-4-ylamino]-butyl}-butyramide]	≤ 10	1	≤ 200	53	
COCCOc1ccc2c(c1)nc(NCCCCNC(=O)[C@@H](NC(=O)OC(C)C)C(C)C)c1nnc(C)n12 [Example 400, (S)-(1-{4-[7-(2-methoxy-ethoxy)-1-methyl-[1,2,4]triazolo[4,3-a]quinoxaline-4-ylamino]-butylcarbamoyl}-2-methyl-propyl)-carbamic acid isopropylester]	≤ 10	1		200	
Cc1nnc2c(NCCCCNC(=O)c3ccccc3)nc3cc(OC(F)(F)F)ccc3n12 [Example 273, N-[4-(1-methyl-7-trifluoromethoxy-[1,2,4]triazolo[4,3-a]quinoxaline-4-ylamino)-butyl]-benzamide]	≤ 50	49		510	
Cc1nnc2c(NCCCCNC(=O)CC(C)C)nc3cc(OCc4ccc(-c5nnn(C)n5)cc4)ccc3n12 [Example 349, 3-methyl-N-(4-{1-methyl-7-[4-(2-methyl-2H-tetrazolo-5-yl)-benzyloxy]-[1,2,4]triazolo[4,3-a]quinoxaline-4-ylamino}-butyl)-butyramide]		55	≤ 200	160	
COc1ccc2c(nc(NCCCCNC(=O)CC(C)C)c3nnc(C)n32)c1Cl [Example 461, [4-(6-chloro-7-methoxy-1-methyl-[1,2,4]triazolo[4,3-a]quinoxaline-4-ylamino)-butyl]-3-methyl-butyramide]	≤ 50			250	
COc1ccc2c(c1)nc(NCCCCNC(=O)Cc1cccs1)c1nnc(C)n12 [Example 307, N-[4-(7-methoxy-1-methyl-[1,2,4]triazolo[4,3-a]quinoxaline-4-ylamino)-butyl]-2-thiophene-2-yl-acetamide]	≤ 50	22	≤ 200	10	
COCCOc1ccc2c(c1)nc(NCCCCNC(=O)Oc1ccccc1)c1nnc(C)n12 [Example 372, {4-[7-(2-methoxy-ethoxy)-1-methyl-[1,2,4]triazolo[4,3-a]quinoxaline-4-ylamino]-butyl}-carbamic acid phenylester]			≤ 200	180	≤ 10
Cc1nnc2c(NCCCCNC(=O)CC(C)C)nc3ccc(NCCCC#N)cc3n12 [Example 553, N-{4-[8-(3-cyano-propylamino)-1-methyl-[1,2,4]triazolo[4,3-a]quinoxaline-4-ylamino]-butyl}-3-methyl-butyramide]	≤ 50	24	≤ 200	174	
Cc1nnc2c(NCCCCNC(=O)[C@@H](NC(=O)[C@@H](F)C(C)C)C(C)C)nc3cc(N4C[C@@H](C)O[C@@H](C)C4)ccc3n12 [Example 517]	≤ 50	38		236	
COc1cc2c(cc1C)nc(NCCCCNC(=O)[C@@H](O)C(C)C)c1nnc(C)n12 [Example 153, 2-(S)-hydroxy-N-[4-(8-methoxy-1,7-dimethyl-[1,2,4]triazolo[4,3-a]quinoxaline-4-ylamino)-butyl]-3-methyl-butyramide]	≤ 50	16		460	
COc1ccc2nc(NCCCCNC(=O)c3ccccc3Cl)c3nnc(C)n3c2c1 [Example 128, 2-chloro-N-[4-(8-methoxy-1-methyl-[1,2,4]triazolo[4,3-a]quinoxaline-4-ylamino)-butyl]-benzamide]	≤ 50	33	≤ 200	170	
Cc1nnc2c(NCCCCNC(=O)CC(C)C)nc3ccc(N)cc3n12 [Example 551, N-[4-(8-amino-1-methyl-[1,2,4]triazolo[4,3-a]quinoxaline-4-ylamino)-butyl]-3-methyl-butyramide]	≤ 50	12	≤ 200	135	
COc1ccccc1C(=O)NCCCCNc1nc2cc(-c3nc4ccccc4n3C)ccc2n2c(C)nnc12 [Example 237, 2-methoxy-N-{4-[1-methyl-7-(1-methyl-1H-benzoimidazole-2-yl)-[1,2,4]triazolo[4,3-a]quinoxaline-4-ylamino]-butyl}-benzamide]	≤ 10	0.6		500	
Cc1nnc2c(NCCCCNC(=O)c3ccccc3Cl)nc3cc(OC(F)(F)F)ccc3n12 [Example 274, 2-chloro-N-[4-(1-methyl-7-trifluoromethoxy-[1,2,4]triazolo[4,3-a]quinoxaline-4-ylamino)-butyl]-benzamide]	≤ 50	27		280	
Cc1nnc2c(NCCCCNC(=O)CC(C)C)nc3cc([N+](=O)[O-])ccc3n12 [Example 244]		89		260	
CCc1nnc2c(NCCCCNC(=O)OC(C)C)nc3cc(OC)c(OC)cc3n12 [Example 596, [4-(1-ethyl-7,8-dimethoxy-[1,2,4]triazolo[4,3-a]quinoxaline-4-ylamino)-butyl]-carbamic acid isopropylester]	≤ 50	19		510	
COc1cc2nc(NCCCCNC(=O)CC(C)C)c3nnc(C)n3c2cc1N [Example 556, N-[4-(8-amino-7-methoxy-1-methyl-[1,2,4]triazolo[4,3-a]quinoxaline-4-ylamino)-butyl]-3-methyl-butyramide]	≤ 50	31	≤ 200	1	
Cc1nnc2c(NCCCCNC(=O)[C@H](O)C(C)C)nc3cc(-c4nc5ccccc5[nH]4)ccc3n12 [Example 226, N-{4-[7-(1H-benzoimidazole-2-yl)-1-methyl-[1,2,4]triazolo[4,3-a]quinoxaline-4-ylamino]-butyl}-2-(R)-hydroxy-3-methyl-butyramide]	≤ 10	4		290	

Continued, in another order:

IC50 [2, 5] [nM]	IC50 [2, 6] [nM]	Compound	IC50 [1, 3] [nM]	IC50 [1, 4] [nM]	IC50 ([2]; IC50, BRD4 binding inhibition, GST-BRD4 (BD1+BD2) / biotinylated acetyl-histone H4 (Lys5,8,12,16) peptide) [nM]
≤ 50	22	Cc1nnc2c(NCCCCNC(=O)OC(C)(C)C)nc3cc(OCCN4CCOCC4)ccc3n12 [Example 430, {4-[1-methyl-7-(2-morpholine-4-yl-ethoxy)-[1,2,4]triazolo[4,3-a]quinoxaline-4-ylamino]-butyl}-carbamic acid-tert-butylester]		600	
	68	Cc1ccc2[nH]c(-c3ccc4c(c3)nc(NCCCCNC(=O)OC(C)(C)C)c3nnc(C)n34)nc2c1 [Example 219, {4-[1-methyl-7-(5-methyl-1H-benzoimidazole-2-yl)-[1,2,4]triazolo[4,3-a]quinoxaline-4-ylamino]-butyl}-carbamic acid-tert-butylester]	≤ 200	79	
≤ 50	14	C=CCOC(=O)NCCCCNc1nc2cc(OCCOC)ccc2n2c(C)nnc12 [Example 370, {4-[7-(2-methoxy-ethoxy)-1-methyl-[1,2,4]triazolo[4,3-a]quinoxaline-4-ylamino]-butyl}-carbamic acid allylester]		240	
≤ 50	15	CCC(F)(F)C(=O)NCCCCNc1nc2cc(OC)ccc2n2c(C)nnc12 [Example 294, 2,2-difluoro-N-[4-(7-methoxy-1-methyl-[1,2,4]triazolo[4,3-a]quinoxaline-4-ylamino)-butyl]-butyramide]		203	
≤ 50	33	COc1ccc2c(c1)nc(NCCCCNC(=O)SC(C)C)c1nnc(C)n12 [Example 336, [4-(7-methoxy-1-methyl-[1,2,4]triazolo[4,3-a]quinoxaline-4-ylamino)-butyl]-thiocarbamic acid-S-isopropyl ester]	≤ 200	80	
≤ 50	24	COCCOc1cc2nc(NCCCCNC(=O)OC(C)(C)C)c3nnc(C)n3c2cc1OCCOC [Example 162, {4-[7,8-bis-(2-methoxy-ethoxy)-1-methyl-[1,2,4]triazolo[4,3-a]quinoxaline-4-ylamino]-butyl}-carbamic acid-tert-butylester]		640	
	67	COc1ccc2c(c1)nc(NCCCCNC(=O)CC(C)(C)C)c1nnc(C)n12 [Example 287, N-[4-(7-methoxy-1-methyl-[1,2,4]triazolo[4,3-a]quinoxaline-4-ylamino)-butyl]-3,3-dimethyl-butyramide]	≤ 200	125	
≤ 50	15	COc1ccc2c(c1)nc(NCCCCNC(=O)[C@H](OC)C(C)C)c1nnc(C)n12 [Example 300, 2-(R)-methoxy-N-[4-(7-methoxy-1-methyl-[1,2,4]triazolo[4,3-a]quinoxaline-4-ylamino)-butyl]-3-methyl-butyramide]		310	
	74	Cc1nnc2c(NCCCCNC(=O)OC(C)(C)C)nc3ccccc3n12 [Example 1, [4-(1-methyl-[1,2,4]triazolo[4,3-a]quinoxaline-4-ylamino)-butyl]-carbamic acid-tert-butylester]		980	
≤ 50	13	CCOc1ccc2c(c1)nc(NCCCCNC(=O)OC1CCCC1)c1nnc(C)n12 [Example 445, [4-(7-ethoxy-1-methyl-[1,2,4]triazolo[4,3-a]quinoxaline-4-ylamino)-butyl]-carbamic acid cyclopentylester]	≤ 200	100	
